Source: PMC7486443, “Generation of Phenothiazine with Potent Anti-TLK1 Activity for Prostate Cancer Therapy” (iScience, 2020)

Tests used:
Assay in all cases: biochemical
Set-up in all cases: DiscoverX KINOMEscan scanMAX competition binding panel, single concentration, percent of control; remaining binding: dose or concentration left out as unconfirmed
Details in all cases: KINOMEscan binding, percent of control; read-out: Table S4_SCANMAX REPORT - related to Fig. 1 / Percent Control
EPHA7 = EPHA7 (Homo sapiens, UniProt Q15375)
TNK1 = TNK1 (Homo sapiens, UniProt Q13470)
DYRK2 = DYRK2 (Homo sapiens, UniProt Q92630)
FLT3(K663Q) = FLT3(K663Q) (Homo sapiens, UniProt P36888, K663Q)
PFTK1 = target: T1, PFTK1 (Homo sapiens, UniProt O94921)
T1 construct: gene CDK14

ULK1 = ULK1 (Homo sapiens, UniProt O75385)
CAMK4 = CAMK4 (Homo sapiens, UniProt Q16566)
ERBB2 = ERBB2 (Homo sapiens, UniProt P04626)
PIK3CA(E542K) = PIK3CA(E542K) (Homo sapiens, UniProt P42336, E542K)
CAMK2G = CAMK2G (Homo sapiens, UniProt Q13555)
CDK7 = CDK7 (Homo sapiens, UniProt P50613)
AKT3 = AKT3 (Homo sapiens, UniProt Q9Y243)
PDGFRB = PDGFRB (Homo sapiens, UniProt P09619)
TSSK1B = TSSK1B (Homo sapiens, UniProt Q9BXA7)
PCTK3 = target: T2, PCTK3 (Homo sapiens, UniProt Q07002)
T2 construct: gene CDK18

LIMK1 = LIMK1 (Homo sapiens, UniProt P53667)
ACVRL1 = ACVRL1 (Homo sapiens, UniProt P37023)
DAPK3 = DAPK3 (Homo sapiens, UniProt O43293)

PIK3CA(E542K), sequence (P42336 whole entry E542K): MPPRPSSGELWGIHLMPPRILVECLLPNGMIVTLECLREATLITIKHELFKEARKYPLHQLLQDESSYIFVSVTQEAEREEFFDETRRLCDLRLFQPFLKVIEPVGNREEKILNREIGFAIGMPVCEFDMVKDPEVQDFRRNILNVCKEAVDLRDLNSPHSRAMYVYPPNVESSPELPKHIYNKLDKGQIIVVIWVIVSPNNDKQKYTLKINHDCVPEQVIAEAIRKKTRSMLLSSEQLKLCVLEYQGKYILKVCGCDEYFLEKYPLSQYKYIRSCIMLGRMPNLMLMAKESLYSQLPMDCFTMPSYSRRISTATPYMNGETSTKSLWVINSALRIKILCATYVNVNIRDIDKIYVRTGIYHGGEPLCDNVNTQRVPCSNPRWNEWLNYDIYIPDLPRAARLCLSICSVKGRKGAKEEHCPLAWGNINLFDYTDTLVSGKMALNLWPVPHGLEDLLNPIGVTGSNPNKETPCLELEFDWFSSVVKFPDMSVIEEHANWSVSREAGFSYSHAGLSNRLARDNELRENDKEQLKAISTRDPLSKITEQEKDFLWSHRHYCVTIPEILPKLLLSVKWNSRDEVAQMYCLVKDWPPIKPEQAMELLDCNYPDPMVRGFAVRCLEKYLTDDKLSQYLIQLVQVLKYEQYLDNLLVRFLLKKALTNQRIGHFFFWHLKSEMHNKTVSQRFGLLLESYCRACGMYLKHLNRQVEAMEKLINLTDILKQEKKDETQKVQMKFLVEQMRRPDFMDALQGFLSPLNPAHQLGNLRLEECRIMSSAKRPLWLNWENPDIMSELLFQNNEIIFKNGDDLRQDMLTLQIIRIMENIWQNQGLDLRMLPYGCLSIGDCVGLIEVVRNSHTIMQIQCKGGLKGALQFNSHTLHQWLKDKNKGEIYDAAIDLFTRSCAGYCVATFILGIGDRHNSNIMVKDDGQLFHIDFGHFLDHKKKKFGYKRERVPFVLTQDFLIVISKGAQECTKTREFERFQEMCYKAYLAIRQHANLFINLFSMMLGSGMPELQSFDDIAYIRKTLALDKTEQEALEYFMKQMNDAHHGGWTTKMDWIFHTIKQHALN
CAMK2G, sequence (Q13555 whole entry): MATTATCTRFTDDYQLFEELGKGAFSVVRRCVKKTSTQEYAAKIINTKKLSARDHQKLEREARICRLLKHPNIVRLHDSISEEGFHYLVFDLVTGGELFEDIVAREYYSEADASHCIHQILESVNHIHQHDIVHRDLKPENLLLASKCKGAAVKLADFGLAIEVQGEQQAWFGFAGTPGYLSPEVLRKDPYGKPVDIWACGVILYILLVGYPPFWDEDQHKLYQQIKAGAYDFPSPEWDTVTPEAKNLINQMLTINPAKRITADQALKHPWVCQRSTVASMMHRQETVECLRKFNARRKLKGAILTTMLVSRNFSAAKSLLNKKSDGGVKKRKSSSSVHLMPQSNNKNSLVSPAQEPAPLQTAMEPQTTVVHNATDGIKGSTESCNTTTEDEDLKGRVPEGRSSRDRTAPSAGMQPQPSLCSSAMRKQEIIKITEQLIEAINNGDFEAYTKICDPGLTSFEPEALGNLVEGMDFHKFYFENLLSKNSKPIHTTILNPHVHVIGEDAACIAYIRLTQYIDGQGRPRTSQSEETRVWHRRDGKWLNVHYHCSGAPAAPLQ
ERBB2, sequence (P04626 whole entry): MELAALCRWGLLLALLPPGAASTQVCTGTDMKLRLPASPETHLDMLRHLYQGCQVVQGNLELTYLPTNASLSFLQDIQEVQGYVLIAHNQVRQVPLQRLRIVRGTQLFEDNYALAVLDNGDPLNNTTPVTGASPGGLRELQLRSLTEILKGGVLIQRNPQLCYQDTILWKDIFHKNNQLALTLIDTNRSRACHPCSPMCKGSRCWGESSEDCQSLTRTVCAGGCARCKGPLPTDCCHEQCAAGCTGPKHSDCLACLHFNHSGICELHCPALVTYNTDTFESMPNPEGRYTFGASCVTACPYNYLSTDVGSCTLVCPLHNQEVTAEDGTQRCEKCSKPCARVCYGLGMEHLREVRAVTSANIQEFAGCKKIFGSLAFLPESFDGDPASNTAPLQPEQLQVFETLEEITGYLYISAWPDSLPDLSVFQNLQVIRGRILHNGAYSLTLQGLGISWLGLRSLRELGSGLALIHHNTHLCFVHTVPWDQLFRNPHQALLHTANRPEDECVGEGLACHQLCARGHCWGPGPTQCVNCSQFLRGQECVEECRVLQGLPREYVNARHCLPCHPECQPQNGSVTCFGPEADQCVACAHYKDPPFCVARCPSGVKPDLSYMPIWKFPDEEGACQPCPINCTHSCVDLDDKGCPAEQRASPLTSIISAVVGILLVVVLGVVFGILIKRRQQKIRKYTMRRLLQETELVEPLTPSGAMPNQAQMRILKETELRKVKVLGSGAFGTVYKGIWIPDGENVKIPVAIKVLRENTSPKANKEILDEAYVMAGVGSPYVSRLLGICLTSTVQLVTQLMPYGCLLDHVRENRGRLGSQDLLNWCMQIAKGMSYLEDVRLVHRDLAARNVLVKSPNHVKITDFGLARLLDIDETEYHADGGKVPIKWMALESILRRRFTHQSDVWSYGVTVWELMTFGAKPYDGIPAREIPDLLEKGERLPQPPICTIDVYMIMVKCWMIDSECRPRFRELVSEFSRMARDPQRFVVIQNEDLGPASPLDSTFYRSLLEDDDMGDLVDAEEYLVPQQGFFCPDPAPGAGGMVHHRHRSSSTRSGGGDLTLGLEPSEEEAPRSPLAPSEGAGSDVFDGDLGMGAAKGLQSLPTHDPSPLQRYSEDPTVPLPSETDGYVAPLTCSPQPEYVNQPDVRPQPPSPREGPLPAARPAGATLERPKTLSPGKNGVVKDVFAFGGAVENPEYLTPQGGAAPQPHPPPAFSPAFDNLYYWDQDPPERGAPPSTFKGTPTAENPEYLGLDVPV
T1 sequence (O94921 whole entry): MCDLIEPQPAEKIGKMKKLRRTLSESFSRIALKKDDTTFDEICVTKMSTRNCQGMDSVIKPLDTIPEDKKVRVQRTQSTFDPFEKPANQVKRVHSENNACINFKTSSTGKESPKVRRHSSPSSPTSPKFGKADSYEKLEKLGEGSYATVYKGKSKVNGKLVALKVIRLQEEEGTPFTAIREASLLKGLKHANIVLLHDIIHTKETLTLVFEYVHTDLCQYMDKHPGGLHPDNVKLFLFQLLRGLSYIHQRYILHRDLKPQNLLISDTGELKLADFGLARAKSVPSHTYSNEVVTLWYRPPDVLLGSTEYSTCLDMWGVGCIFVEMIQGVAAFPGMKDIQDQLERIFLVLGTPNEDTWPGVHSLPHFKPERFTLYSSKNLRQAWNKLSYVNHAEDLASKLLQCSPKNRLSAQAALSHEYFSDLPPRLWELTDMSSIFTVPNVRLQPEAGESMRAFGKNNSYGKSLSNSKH
AKT3, sequence (Q9Y243 whole entry): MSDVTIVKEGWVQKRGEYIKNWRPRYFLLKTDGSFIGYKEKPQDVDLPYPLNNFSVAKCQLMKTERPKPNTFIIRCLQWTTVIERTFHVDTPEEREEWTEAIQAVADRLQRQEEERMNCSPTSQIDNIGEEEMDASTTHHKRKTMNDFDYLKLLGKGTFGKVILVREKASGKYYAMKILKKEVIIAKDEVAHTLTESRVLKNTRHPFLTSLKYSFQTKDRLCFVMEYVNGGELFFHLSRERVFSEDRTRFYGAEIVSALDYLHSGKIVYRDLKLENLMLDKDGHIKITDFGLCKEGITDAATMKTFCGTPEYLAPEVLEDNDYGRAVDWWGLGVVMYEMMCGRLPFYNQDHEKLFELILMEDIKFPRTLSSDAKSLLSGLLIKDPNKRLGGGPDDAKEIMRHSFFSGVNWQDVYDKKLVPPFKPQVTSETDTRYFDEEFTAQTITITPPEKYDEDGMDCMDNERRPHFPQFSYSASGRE
T2 sequence (Q07002 whole entry): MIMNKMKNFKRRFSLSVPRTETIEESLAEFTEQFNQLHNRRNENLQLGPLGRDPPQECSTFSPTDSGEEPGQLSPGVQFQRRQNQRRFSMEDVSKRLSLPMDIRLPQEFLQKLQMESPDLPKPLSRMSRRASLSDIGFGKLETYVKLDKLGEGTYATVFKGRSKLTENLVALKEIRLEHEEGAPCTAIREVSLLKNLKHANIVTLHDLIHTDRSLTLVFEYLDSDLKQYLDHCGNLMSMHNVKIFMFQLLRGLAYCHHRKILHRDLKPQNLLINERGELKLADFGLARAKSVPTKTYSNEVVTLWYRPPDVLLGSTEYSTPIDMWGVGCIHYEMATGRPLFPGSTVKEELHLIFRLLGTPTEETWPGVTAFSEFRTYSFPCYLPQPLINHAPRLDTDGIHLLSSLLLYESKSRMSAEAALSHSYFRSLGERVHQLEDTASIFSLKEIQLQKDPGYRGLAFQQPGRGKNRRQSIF
LIMK1, sequence (P53667 whole entry): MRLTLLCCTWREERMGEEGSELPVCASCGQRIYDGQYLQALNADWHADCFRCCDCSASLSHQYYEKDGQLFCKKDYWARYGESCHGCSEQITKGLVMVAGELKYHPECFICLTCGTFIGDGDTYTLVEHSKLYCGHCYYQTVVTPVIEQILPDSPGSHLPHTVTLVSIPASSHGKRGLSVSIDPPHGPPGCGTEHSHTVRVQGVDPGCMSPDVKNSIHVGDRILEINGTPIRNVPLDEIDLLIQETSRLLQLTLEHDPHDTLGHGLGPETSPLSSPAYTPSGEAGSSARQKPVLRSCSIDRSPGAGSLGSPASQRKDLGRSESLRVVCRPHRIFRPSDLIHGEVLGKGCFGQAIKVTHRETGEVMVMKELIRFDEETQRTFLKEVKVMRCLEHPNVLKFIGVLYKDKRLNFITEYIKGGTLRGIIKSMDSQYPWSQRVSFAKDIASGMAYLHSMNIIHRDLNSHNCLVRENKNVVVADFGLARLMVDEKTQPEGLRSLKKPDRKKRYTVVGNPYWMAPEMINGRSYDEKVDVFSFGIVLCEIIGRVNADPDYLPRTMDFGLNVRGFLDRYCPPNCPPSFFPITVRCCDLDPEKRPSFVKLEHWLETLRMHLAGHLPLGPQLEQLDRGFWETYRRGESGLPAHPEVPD

**Q.** `c1ccc2c(c1)Sc1ccccc1N2CCN1CCOCC1` [J54] was tested. Which remaining binding (EPHA7) did it give?
**A.** 100%

**Q.** What about the remaining binding (TNK1) of the same compound?
**A.** 99%

**Q.** And the remaining binding (DYRK2)?
**A.** 83%

**Q.** What about the remaining binding (FLT3(K663Q)) of the same compound?
**A.** 94%

**Q.** And the remaining binding (PFTK1)?
**A.** 100%

**Q.** And the remaining binding (ULK1)?
**A.** 99%

**Q.** What about the remaining binding (CAMK4) of the same compound?
**A.** 94%

**Q.** What about the remaining binding (ERBB2) of the same compound?
**A.** 100%

**Q.** And the remaining binding (PIK3CA(E542K))?
**A.** 100%

**Q.** What about the remaining binding (CAMK2G) of the same compound?
**A.** 100%

**Q.** What about the remaining binding (CDK7) of the same compound?
**A.** 74%

**Q.** And the remaining binding (AKT3)?
**A.** 84%

**Q.** What about the remaining binding (PDGFRB) of the same compound?
**A.** 100%

**Q.** What about the remaining binding (TSSK1B) of the same compound?
**A.** 59%

**Q.** And the remaining binding (PCTK3)?
**A.** 100%

**Q.** What about the remaining binding (LIMK1) of the same compound?
**A.** 100%

**Q.** And the remaining binding (ACVRL1)?
**A.** 100%

**Q.** And the remaining binding (DAPK3)?
**A.** 96%
